For 28 compounds, IC50 results are on record in US10059709B2, “Compounds” (Elanco Tiergesundheit AG, priority 2014, dated 2018).

The IC50 is the midpoint of a concentration-inhibition curve.

Holding throughout (format): biochemical
Assay [1] addresses GST-JAK1(866-1154) (Homo sapiens (Human), UniProt P23458). Put plainly: Caliper mobility shift kinase assay, JAK1. The settings on record: IRS-1 peptide 5 μM, ATP 40 μM, 60 minutes at 30° C. The text has this: (§1) Measurement of the Effect on the JAK Enzyme
(§2) All four kinases of the JAK/TYK-kinase family were used as purified recombinant GST-fusion proteins, containing the active kinase domains. GST-JAK1(866-1154), GST-JAK3(811-1124), and GST-TYK2(888-1187) were expressed and purified by affinity chromatography at the EPK biology unit.
(§3) The kinase assays were based on the Caliper mobility shift assay using the LabChip 3000 systems. This technology is similar to capillary electrophoresis and uses charge driven separation of substrate and product in a microfluidic chip.
(§4) All kinase reactions were performed in 384 well microtiter plates in a total reaction volume of
(§5) 18 μI. […] The reactions were started by combining 9 μI of substrate mix (consisting of peptide and ATP) with 9 μI of kinase dilution. The reactions were incubated for 60 minutes at 30° C. and stopped by adding 70 μI of stop buffer (100 mM Hepes, 5% DMSO, 0.1% Coating reagent, 10 mM EDTA, 0.015% Brij 35).
(§6) Fluorescently labeled synthetic peptides were used as substrates in all reactions. […] Specific assay conditions are described in Table 4:
(§7) The terminated reactions were transferred to the Caliper LabChip 3000 reader and the turnover of each reaction was measured by determining the substrate/product ratio.
(§8) Preparation of Compound Dilutions
(§9) Test compounds were dissolved in DMSO (10 mM) and transferred into 1.4 mL flatbottom or V-shaped Matrix tubes carrying a unique 2D matrix chip by individual compound hubs. The numbers of these chips were distinctively linked to the individual compound identification numbers. The stock solutions were stored at −20° C. if not used immediately. For the test procedure the vials were defrosted and identified by a scanner whereby a working sheet was generated that guided the subsequent working steps. Compound dilutions were made in 96 well plates. This format enabled the assay of maximally 40 individual test compounds at 8 concentrations (single points) including 4 reference compounds. The dilution protocol included the production of pre-dilution plates, master plates and assay plates:
(§10) Pre-dilution plates: 96 polypropylene well plates were used as pre-dilution plates. A total of 4 pre-dilution plates were prepared including 10 test compounds each on the plate positions A1-A10, one standard compound at A11 and one DMSO control at A12. All dilution steps were done on a HamiltonSTAR robot.
(§11) Master plates: 100 μI of individual compound dilutions including standard compound and controls of the 4 “pre-dilution plates” were transferred into a 384 “master plate” including the following concentrations 1′820, 564, 182, 54.6, 18.2, 5.46, 1.82 and 0.546 μM, respectively in 90% of DMSO.
(§12) Assay plates: Identical assay plates were then prepared by pipetting 100 nL of compound dilutions of the master plates into 384-well “assay plates”. […] The preparation of the master plates were handled by the Matrix PlateMate Plus robot and replication of assay plates by the HummingBird robot.

For assay [2], the target named is GST-JAK3(811-1124) (Homo sapiens (Human), UniProt P52333). Put plainly: Caliper mobility shift kinase assay, JAK3. Conditions: JAK3tide 2 μM, ATP 80 or 18 μM, 60 minutes at 30° C.
Sequence of GST-JAK3(811-1124) (P52333 811-1124): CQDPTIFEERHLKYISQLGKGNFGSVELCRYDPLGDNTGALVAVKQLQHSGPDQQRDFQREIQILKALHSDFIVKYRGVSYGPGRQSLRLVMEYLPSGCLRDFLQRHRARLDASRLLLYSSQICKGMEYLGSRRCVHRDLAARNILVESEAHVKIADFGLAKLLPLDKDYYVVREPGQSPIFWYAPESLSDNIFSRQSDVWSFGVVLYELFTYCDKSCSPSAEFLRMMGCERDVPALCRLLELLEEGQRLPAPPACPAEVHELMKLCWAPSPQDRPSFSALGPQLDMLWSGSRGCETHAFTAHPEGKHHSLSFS
Text: as §1, §2, §3, §4
18 μI. The assay plates were prepared with 0.1 μI per well of test compound in the appropriate test concentration, as described under the section “preparation of compound dilutions”. The reactions were started by combining 9 μI of substrate mix (consisting of peptide and ATP) with 9 μI of kinase dilution. The reactions were incubated for 60 minutes at 30° C. and stopped by adding 70 μI of stop buffer (100 mM Hepes, 5% DMSO, 0.1% Coating reagent, 10 mM EDTA, 0.015% Brij 35).
Fluorescently labeled synthetic peptides were used as substrates in all reactions. A peptide derived from the sequence of IRS-1 (IRS-1 peptide, FITC-Ahx-[…]-NH2) was used for JAK1 and TYK2 and a peptide named JAK3tide (FITC-[…]-NH2) for JAK3. Specific assay conditions are described in Table 4:
as §7, §8, §9, §10, §11
Assay plates: Identical assay plates were then prepared by pipetting 100 nL of compound dilutions of the master plates into 384-well “assay plates”. In the following the compounds were mixed with 9 μI of assays components plus 9 μI enzyme corresponding to a 1:181 dilution steps enabling the final concentration of 10, 3.0, 1.0, 0.3, 0.1, 0.03, 0.01 and 0.003 μM, respectively. The preparation of the master plates were handled by the Matrix PlateMate Plus robot and replication of assay plates by the HummingBird robot.

Assay [3] has as its target GST-TYK2(888-1187) (Homo sapiens (Human), UniProt P29597). In words: Caliper mobility shift kinase assay, TYK2. Conditions: IRS-1 peptide 5 μM, ATP 30 μM, 60 minutes at 30° C.
Text: as §1, §2, §3, §4, §5, §6, §7, §8, §9, §10, §11, §12

Sequence of GST-TYK2(888-1187) (P29597 888-1187): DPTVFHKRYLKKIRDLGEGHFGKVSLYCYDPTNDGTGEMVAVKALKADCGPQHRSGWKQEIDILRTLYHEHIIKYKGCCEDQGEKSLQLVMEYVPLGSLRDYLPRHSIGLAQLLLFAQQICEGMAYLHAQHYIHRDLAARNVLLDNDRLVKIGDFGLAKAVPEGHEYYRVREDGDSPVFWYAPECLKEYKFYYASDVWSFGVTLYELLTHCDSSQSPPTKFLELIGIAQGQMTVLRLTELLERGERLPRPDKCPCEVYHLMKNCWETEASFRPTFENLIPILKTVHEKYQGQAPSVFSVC
Sequence of GST-JAK1(866-1154) (P23458 866-1154): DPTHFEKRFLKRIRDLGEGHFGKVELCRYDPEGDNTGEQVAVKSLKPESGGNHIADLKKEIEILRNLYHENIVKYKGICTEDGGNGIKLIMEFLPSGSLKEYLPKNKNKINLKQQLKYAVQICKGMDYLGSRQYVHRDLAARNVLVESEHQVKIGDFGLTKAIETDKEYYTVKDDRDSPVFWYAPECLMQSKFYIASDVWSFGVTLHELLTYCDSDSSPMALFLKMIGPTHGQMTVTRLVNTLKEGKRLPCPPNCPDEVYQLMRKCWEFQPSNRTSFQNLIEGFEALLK

`CNS(=O)(=O)C[C@H]1CC[C@H](Oc2ncnn3cccc23)CC1` [compound 6]: the IC50 in assay [1], in assay [2] and in assay [3] was over 10 µM each time.
Regarding `CNS(=O)(=O)C[C@H]1CC[C@H](Nc2nc(N)ncc2Br)CC1` [compound 13], the figures for the IC50 in assay [2] and in assay [3] were over 10 µM and 6 µM, respectively.
Consider `CNS(=O)(=O)C[C@H]1CC[C@H](Oc2c(C#N)cnc3sccc23)CC1` [compound 20], for which the IC50 in assay [1], in assay [2] and in assay [3] was over 10 µM throughout.
As to `CNS(=O)(=O)C[C@H]1CC[C@H](N(C)c2ncnc3[nH]ncc23)CC1` [compound 3], the IC50 in assay [1], in assay [2] and in assay [3] was over 10 µM in each case.
Consider `CNS(=O)(=O)C[C@H]1CC[C@H](N(C)c2cc(Cl)nc(N)n2)CC1` [compound 10], for which the IC50 in assay [1], in assay [2] and in assay [3] was over 10 µM each time.
Regarding `CNS(=O)(=O)C[C@H]1CC[C@H](N(C)c2c(C#N)cnn3cccc23)CC1` [compound 24], the IC50 in assay [1] was 0.93 µM; in assay [2] it was over 10 µM; in assay [3], 8.5 µM.
On to `CNS(=O)(=O)C[C@H]1CC[C@H](N(C)c2c([N+](=O)[O-])cnc3[nH]ccc23)CC1` [compound 18], for which the IC50 stood at 1.2 µM in assay [2] and 0.39 µM in assay [3].
For `CNS(=O)(=O)C[C@H]1CC[C@H](N(C)c2ncnc3[nH]cnc23)CC1` [compound 2, N-methyl-1-[trans-4-[methyl(9H-purin-6-yl)amino]cyclohexyl]methanesulfonamide], the IC50 in assay [1] came to 0.582 µM; in assay [2], 1.89 µM; in assay [3], 4.59 µM.
As for `CNS(=O)(=O)C[C@H]1CC[C@H](Oc2c([N+](=O)[O-])cnc3[nH]ccc23)CC1` [compound 25, N-methyl-1-[trans-4-[(5-nitro-1H-pyrrolo[2,3-b]pyridin-4-yl)oxy]cyclohexyl]methanesulfonamide], the IC50 was 0.071 µM in assay [1] and 3.6 µM in assay [2].
With `CNS(=O)(=O)C[C@H]1CC[C@H](Nc2ncnn3cccc23)CC1` [compound 15], the IC50 in assay [1], in assay [2] and in assay [3] was over 10 µM each time.
For the compound `CNS(=O)(=O)C[C@H]1CC[C@H](N(C)c2nc(N)ncc2-c2ccccc2)CC1` [compound 21], the IC50 in assay [1], in assay [2] and in assay [3] was over 10 µM in each case.
For `CNS(=O)(=O)C[C@H]1CC[C@H](Nc2ccnc(N)n2)CC1` [compound 11], the IC50 in assay [1], in assay [2] and in assay [3] was over 10 µM each time.
In the case of `CNS(=O)(=O)C[C@H]1CC[C@H](N(C)c2c(C#N)cnc3sccc23)CC1` [compound 17], the IC50 in assay [1], in assay [2] and in assay [3] was over 10 µM throughout.
`CNS(=O)(=O)C[C@H]1CC[C@H](Oc2ncnc3sccc23)CC1` [compound 19]: the IC50 in assay [1], in assay [2] and in assay [3] was over 10 µM each time.
Regarding `CNS(=O)(=O)C[C@H]1CC[C@H](N(C)c2ncnn3cccc23)CC1` [compound 28], the IC50 in assay [1] was 0.55 µM; in assay [2], over 10 µM; in assay [3] it was 3.2 µM.
The corresponding values for `CNS(=O)(=O)C[C@H]1CC[C@H](N(C)c2c(C#N)cnc3[nH]ccc23)CC1` [compound 26, 1-[trans-4-[(5-cyano-1H-pyrrolo[2,3-b]pyridin-4-yl)-methyl-amino]cyclohexyl]-N-methyl-methanesulfonamide] are 0.034 µM, 3 µM and 0.84 µM.
The corresponding values for `CNS(=O)(=O)C[C@H]1CC[C@H](Nc2c(C#N)cnc3sccc23)CC1` [compound 14] are over 10 µM, over 10 µM and over 10 µM.
For `CNS(=O)(=O)C[C@H]1CC[C@H](Nc2c(C#N)cnn3cccc23)CC1` [compound 27], the IC50 was 1.8 µM in assay [1] and over 10 µM in assay [2].
With `CNS(=O)(=O)C[C@H]1CC[C@H](Nc2ncnc3sccc23)CC1` [compound 8], the IC50 in assay [1], in assay [2] and in assay [3] was over 10 µM throughout.
Consider `CNS(=O)(=O)C[C@H]1CC[C@H](Nc2nc(N)ncc2C)CC1` [compound 12], for which the IC50 in assay [1], in assay [2] and in assay [3] was over 10 µM each time.
As for `CNS(=O)(=O)C[C@H]1CC[C@H](N(C)c2ncnc3[nH]c(Cc4ccccc4)nc23)CC1` [compound 5], the IC50 in assay [1], in assay [2] and in assay [3] was over 10 µM each time.
For the compound `CNS(=O)(=O)C[C@H]1CC[C@H](N(C)c2ccnc(N)n2)CC1` [compound 16], the IC50 in assay [1], in assay [2] and in assay [3] was over 10 µM in each case.
As for `CNS(=O)(=O)C[C@H]1CC[C@H](N(C)c2ncnc3[nH]c(-c4ccccc4)nc23)CC1` [compound 4], the IC50 in assay [1], in assay [2] and in assay [3] was over 10 µM throughout.
Take `CNS(=O)(=O)C[C@H]1CC[C@H](Nc2nc(N)ncc2-c2ccccc2)CC1` [compound 23]: the IC50 in assay [1], in assay [2] and in assay [3] was over 10 µM throughout.
Regarding `CNS(=O)(=O)C[C@H]1CC[C@H](n2cnc3cnc4[nH]ccc4c32)CC1` [compound 22, 1-[trans-4-(imidazo[4,5-d]pyrrolo[2,3-b]pyridin-1(6H)-yl)cyclohexyl]-N-methylmethanesulfonamide], the values for the IC50 in assay [1], in assay [2] and in assay [3] were 0.01 µM, 0.26 µM and 0.13 µM, respectively.
The corresponding values for `CNS(=O)(=O)C[C@H]1CC[C@H](N(C)c2nc(N)ncc2Br)CC1` [compound 7] are over 10 µM, over 10 µM and over 10 µM.
The corresponding values for `CNS(=O)(=O)C[C@H]1CC[C@H](N(C)c2ncnc3sccc23)CC1` [compound 9] are over 10 µM, over 10 µM and over 10 µM.
Regarding `CNS(=O)(=O)C[C@H]1CC[C@H](N(C)c2ncnc3[nH]c(C)nc23)CC1` [compound 1], in assay [2], the IC50 was determined as 7.93 µM.
